Reference: patent publication US20080057044A1, “Lactobacillus Plantarum with Body-Fat Reducing Activity and the Foods Containing Them” (priority 2004, published 2008)

Experiments:
[1] = test system: Lactobacillus plantarum Strain PL62; experiment: Antibiotic resistance (diameter of growth inhibition); type: cell-based
Source text: The stronger antibiotic resistance a probiotic has, the higher survivability within the intestines is. Thus, the stronger an antibiotic resistance is, the better it is. However, if an antibiotic resistance is transferred, resistance problems may be brought about. It was confirmed whether an antibiotic resistance was transferred to other bacteria or not.

overweight people = conditions: 180 overweight people, one year; cited from earlier work

Compound | Diameter (mm) of growth inhibition [1] [mm] | weight loss (overweight people)
Trimethpprime/sulfamethoxasole | 28 | –
CC[C@H]1OC(=O)[C@H](C)[C@@H](O[C@H]2C[C@@](C)(OC)[C@@H](O)[C@H](C)O2)[C@H](C)[C@@H](O[C@@H]2O[C@H](C)C[C@H](N(C)C)[C@H]2O)[C@](C)(O)C[C@@H](C)C(=O)[C@H](C)[C@@H](O)[C@]1(C)O [Erythromycin] | 32 | –
[H]/N=C(/N)N[C@H]1[C@H](O)[C@@H](O)[C@H](O[C@@H]2O[C@@H](C)[C@](O)(C=O)[C@H]2O[C@@H]2O[C@@H](CO)[C@H](O)[C@@H](O)[C@@H]2NC)[C@@H](N/C(N)=N\[H])[C@@H]1O [Streptomycin] | 8 | –
CN[C@H](CC(C)C)C(=O)N[C@H]1C(=O)N[C@@H](CC(N)=O)C(=O)N[C@H]2C(=O)N[C@H]3C(=O)N[C@H](C(=O)N[C@H](C(=O)O)c4cc(O)cc(O)c4-c4cc3ccc4O)[C@H](O)c3ccc(c(Cl)c3)Oc3cc2cc(c3O[C@@H]2O[C@H](CO)[C@@H](O)[C@H](O)[C@H]2O[C@H]2C[C@](C)(N)[C@H](O)[C@H](C)O2)Oc2ccc(cc2Cl)[C@H]1O [Vancomycin] | 6 | –
CC1(C)S[C@@H]2[C@H](NC(=O)C(C(=O)O)c3ccccc3)C(=O)N2[C@H]1C(=O)O (some centres unmarked) [Carbenicillin] | 29 | –
CC(=O)OCC1=C(C(=O)O)N2C(=O)[C@@H](NC(=O)Cc3cccs3)[C@H]2SC1 [Cephalothin] | 25 | –
conjugated linoleic acid [CLA] | – | 4-10%
CCC[C@@H]1C[C@@H](C(=O)N[C@@H]([C@H]2O[C@H](SC)[C@H](O)[C@@H](O)[C@H]2O)[C@H](C)Cl)N(C)C1 [Clindamycin] | 20 | –
CO[C@H]1/C=C/O[C@@]2(C)Oc3c(C)c(O)c4c(O)c(c(/C=N/N5CCN(C)CC5)c(O)c4c3C2=O)NC(=O)/C(C)=C\C=C\[C@H](C)[C@H](O)[C@@H](C)[C@@H](O)[C@@H](C)[C@H](OC(C)=O)[C@@H]1C [Rifampin] | 24 | –
O=C(N[C@H](CO)[C@H](O)c1ccc([N+](=O)[O-])cc1)C(Cl)Cl [Chloramphenicol] | 30 | –
Cc1onc(-c2ccccc2)c1C(=O)N[C@@H]1C(=O)N2[C@@H]1SC(C)(C)[C@@H]2C(=O)O [Oxacillin] | 11 | –
CCN1CCN(C(=O)N[C@@H](C(=O)N[C@@H]2C(=O)N3C(C(=O)O)=C(CSc4nnnn4C)CS[C@H]23)c2ccc(O)cc2)C(=O)C1=O [Cefoperazone] | 22 | –
CC1(C)S[C@@H]2[C@H](NC(=O)[C@H](N)c3ccccc3)C(=O)N2[C@H]1C(=O)O [Ampicillin] | 34 | –
CN(C)[C@@H]1C(O)=C(C(N)=O)C(=O)[C@@]2(O)C(O)=C3C(=O)c4c(O)cccc4[C@@](C)(O)[C@H]3C[C@@H]12 [Tetracycline] | 24 | –
Gentamicin | 12 | –
CCN1CCN(C(=O)N[C@@H](C(=O)N[C@@H]2C(=O)N3[C@@H]2SC(C)(C)[C@@H]3C(=O)O)c2ccccc2)C(=O)C1=O [Piperacilin] | 37 | –
Penicillin | 29 | –
